Usually melting point stands for the temperature of the solid-liquid transition.

One series concerns cytochrome P450. Description: Substrate response to P450 enzyme activity, rat microsomal enzyme preparation. Type of series: biochemical, rats. Particulars: pH 7.6, 37° C., substrate 10 mM final concentration, average of three tests. The source says:
This example compares four cytochrome P450 substrates within the scope of this invention with two cytochrome P450 substrates that are outside the scope of this invention. The four invention substrates were methoxynaphthalen-2-yl acetonitrile (whose synthesis is shown in Example 8 above and which is designated below as Compound III), ethoxynaphthalen-2-yl acetonitrile (synthesis shown in Example 9, Compound IV), benzoxynaphthalen-2-yl acetonitrile (synthesis shown in Example 10, Compound V), and pentoxynaphthalen-2-yl acetonitrile (synthesis shown in Example 11, Compound VI). The substrates outside the scope of the invention were ethoxyresorufin (designated below as Compound A) and pentoxyresorufin (designated below as Compound B). The structures of these last two substrates are as follows: [drawing 56]
All substrates were tested against a microsomal enzyme preparation from 8-week-old Fisher […] rats, by first combining 890 mL of the preparation with 2 mL of phosphate buffer (pH 7.6, 0.2 M) and incubating the mixture at 37° C. for 5 minutes. The substrate (10 mL) was then added (10 mM final concentration), followed by an appropriate signal generating system (100 mL). The samples were immediately read by fluorometer at 460 nm for 1 minute with excitation at 330 nm. The results in terms of specific activity, both with and without the enzyme system, are shown in Table VII, in which each entry represents an average of three tests.

Series [1] can be described thus: Change in optical properties, UV absorption of esters and hydrolysis products. Type of series: physicochemical. Particulars: for ε (molar absorptivity): in M-1 cm-1 (unit assumed). The source says:
The substrates representing the invention were (R/S)-acetic acid cyano-(6-methoxynaphthalen-2-yl)-methyl ester (the title compound of Synthesis Example 1 above) and (trans/cis)-3-(2,2-dichlorovinyl)-2,2-dimethylcyclopropanecarboxylic acid cyano-(6-methoxynaphthalen-2-yl)-methyl ester (the title compound of Synthesis Example 2 above).

A short description of series [2]: Change in optical properties, fluorescence of esters and hydrolysis products. Format: physicochemical. From the text:
The substrates representing the invention were (R/S)-acetic acid cyano-(6-methoxynaphthalen-2-yl)-methyl ester (the title compound of Synthesis Example 1 above) and (trans/cis)-3-(2,2-dichlorovinyl)-2,2-dimethylcyclopropanecarboxylic acid cyano-(6-methoxynaphthalen-2-yl)-methyl ester (the title compound of Synthesis Example 2 above). The substrates of the prior art were methylumbelyl acetate (for detection by fluorescence emission) and 2-naphthacetate (for detection by UV absorption) in assay solutions with different pH values. These prior art substrates were selected because both are widely used and both have aromatic systems similar to the two test compounds.
Again using tris-maleate at pH levels of 6.5, 7.5, and 8.5, fluorescence studies were performed at concentrations of 10 μM, and fluorescence of the starting esters and the hydrolysis products (hydroxycoumarin in the case of methylumbelyl acetate and 6-methoxy-naphthaldehyde in the case of the Example 1 substrate) were determined by conventional instrumentation. The results are listed in Table III in which “MUA” denotes methylumbelyl acetate, “Compound I” denotes the Example 1 substrate, “Ex” denotes the optimal excitation wavelength in nm, “Emmax” denotes the maximal emission wavelength in nm, and “RFU” denotes the relative fluorescence units multiplied by 1,000.

`N#CC(OCc1ccccc1)c1ccc2ccccc2c1` (stereo not drawn) yielded a melting point of 36 to 37 °C.

In turn, `CCC1OC1CC(=O)OC(C#N)c1ccc2ccccc2c1` (stereo not drawn) gave a melting point of 60 to 61 °C.

With `N#CC(OC(=O)C/C=C/c1ccccc1)c1ccc2ccccc2c1` (stereo not drawn), the melting point is 74 to 75 °C.

On to `CC(=O)OC(C#N)c1ccc2ccccc2c1` (racemic), for which the melting point fell in the range of 37 to 38 °C.

Take `CCOc1ccc2nc3ccc(=O)cc-3oc2c1` [Compound A, ethoxyresorufin, reference compound]: in the series with cytochrome P450, the “Specific Activity, With Enzyme System” value is on record as 89.0 ± 4.6 pmol/min/mg protein and the “Specific Activity, Without Enzyme System” value is 52.2 ± 1.9 pmol/min/mg protein.

On to `CCCCCOc1ccc2nc3ccc(=O)cc-3oc2c1` [Compound B, pentoxyresorufin, reference compound], for which, in the series with cytochrome P450, the “Specific Activity, With Enzyme System” value is 62.5 ± 5.2 pmol/min/mg protein and the “Specific Activity, Without Enzyme System” value is recorded as 41.8 ± 2.2 pmol/min/mg protein.

The molecule `COC(C#N)c1ccc2ccccc2c1` (stereo not drawn) [Compound III, Methoxynaphthalene-2-yl Acetonitrile] came in with a melting point of 47 to 48 °C. In the series with cytochrome P450, the “Specific Activity, With Enzyme System” value was found to be 275.8 ± 20.5 pmol/min/mg protein and the “Specific Activity, Without Enzyme System” value is on record as 45.9 ± 3.0 pmol/min/mg protein.

For the molecule `CCOC(C#N)c1ccc2ccccc2c1` (stereo not drawn) [Compound IV, Ethoxynaphthalene-2-yl Acetonitrile], the melting point was in the range of 53 to 54 °C. Besides, in the series with cytochrome P450, the “Specific Activity, With Enzyme System” value amounted to 292.6 ± 16.2 pmol/min/mg protein and the “Specific Activity, Without Enzyme System” value is on record as 40.0 ± 1.2 pmol/min/mg protein.

With `COc1ccc2cc(C=O)ccc2c1` [aldehyde, 6-methoxy-2-naphthaldehyde], in series [1] (tris-maleate pH 6.5, 10 μM), the “OD (optical density)” value was determined as 0.473, the λmax worked out at 314 nm and the “ε (molar absorptivity)” value was 11,870. Besides, in series [1] (tris-maleate pH 7.5, 10 μM), the “OD (optical density)” value is given as 0.468, the λmax turned out to be 313 nm and the “ε (molar absorptivity)” value was 11,700. Also, in series [1] (tris-maleate pH 8.5, 10 μM), the “OD (optical density)” value was 0.465, the λmax is reported as 314 nm and the “ε (molar absorptivity)” value was 11,630. The “emission peak” value in series [2] (over the three pH levels tested (6.5, 7.5, 8.5)) was found to be 460 nm. Moreover, in series [2] (tris-maleate pH 6.5, 10 μM), the “Emmax (maximal emission wavelength)” value is 450 nm, the “Ex (optimal excitation wavelength)” value turned out to be 360 nm and the “RFU (relative fluorescence units multiplied by 1,000)” value is 17,783 RFU. Further, in series [2] (tris-maleate pH 7.5, 10 μM), the “Emmax (maximal emission wavelength)” value is 485 nm, the “Ex (optimal excitation wavelength)” value was 360 nm and the “RFU (relative fluorescence units multiplied by 1,000)” value was 19,250 RFU. Besides, in series [2] (tris-maleate pH 8.5, 10 μM), the “Emmax (maximal emission wavelength)” value was determined as 510 nm, the “Ex (optimal excitation wavelength)” value is given as 360 nm and the “RFU (relative fluorescence units multiplied by 1,000)” value is 19,256 RFU.

With hydroxycoumarin [HO-coumarin], in series [2] (tris-maleate pH 6.5, 10 μM), the “Emmax (maximal emission wavelength)” value is reported as 460 nm, the “Ex (optimal excitation wavelength)” value was 330 nm and the “RFU (relative fluorescence units multiplied by 1,000)” value is given as 18,830 RFU. In series [2] (tris-maleate pH 7.5, 10 μM), the “Emmax (maximal emission wavelength)” value is listed as 460 nm, the “Ex (optimal excitation wavelength)” value is 330 nm and the “RFU (relative fluorescence units multiplied by 1,000)” value is listed as 19,025 RFU. Besides, in series [2] (tris-maleate pH 8.5, 10 μM), the “Emmax (maximal emission wavelength)” value is 460 nm, the “Ex (optimal excitation wavelength)” value worked out at 330 nm and the “RFU (relative fluorescence units multiplied by 1,000)” value is 19,195 RFU.

The values above are taken from US6528675B1, “Cyanohydrin ethers and esters as high-sensitivity enzyme substrates” (The Regents of the University of California, priority 2001, dated 2003).
